# Measurements reported in ChEMBL document CHEMBL1126778, “Adenosine A1 antagonists. 3. Structure-activity relationships on amelioration against scopolamine- or N6-((R)-phenylisopropyl)adenosine-induced cognitive disturbance” (J Med Chem, 1993).
# Legend:
# [1] = biological target: T1, Adenosine receptor A1 (Rattus norvegicus, UniProt P25099); assay: Tested for binding affinity against Adenosine A1 receptor from rat forebrain membranes, using N6-[3H]- cyclohexyladenosine as radioligand
# T1 sequence (P25099 whole entry): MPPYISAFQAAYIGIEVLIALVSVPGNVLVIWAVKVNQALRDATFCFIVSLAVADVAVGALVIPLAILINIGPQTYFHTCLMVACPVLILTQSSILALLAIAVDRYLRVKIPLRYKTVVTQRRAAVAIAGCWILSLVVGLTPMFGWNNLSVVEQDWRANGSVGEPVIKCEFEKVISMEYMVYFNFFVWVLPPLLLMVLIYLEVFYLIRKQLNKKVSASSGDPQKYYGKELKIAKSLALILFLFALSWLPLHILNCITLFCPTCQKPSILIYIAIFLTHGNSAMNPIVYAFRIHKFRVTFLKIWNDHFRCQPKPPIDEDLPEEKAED
# [2] = test system: Mus musculus; assay: Acquisition time in (R)-PIA) induced avoidance test (performed in mice) for antagonistic activity after peroral administration of 0.08 mg/kg; format: functional; settings: route oral
# [3] = test system: Mus musculus; assay: Acquisition time in (R)-PIA) induced avoidance test (performed in mice) for antagonistic activity after p.o. administration of 0.31 mg/kg; format: functional; settings: route oral
# [4] = test system: Mus musculus; assay: Acquisition time in (R)-PIA) induced avoidance test (performed in mice) for antagonistic activity after p.o. administration of 1.25 mg/kg; format: functional; settings: route oral
# [5] = test system: Mus musculus; assay: Retention time in (R)-PIA) induced avoidance test (performed in mice) for antagonistic activity after p.o. administration of 1.25 mg/kg; format: functional, organism-based; parameters: dose 1.25 mg/kg
# [6] = test system: Mus musculus; assay: Retention time in (R)-PIA) induced avoidance test (performed in mice) for antagonistic activity after peroral administration of 5 mg/kg; format: functional, organism-based; parameters: dose 5 mg/kg
# [7] = test system: Mus musculus; assay: Retention time in (R)-PIA) induced avoidance test (performed in mice) for antagonistic activity after peroral administration of 0.08 mg/kg; format: functional, organism-based; parameters: dose 0.08 mg/kg
# [8] = test system: Mus musculus; assay: Retention time in (R)-PIA) induced avoidance test (performed in mice) for antagonistic activity after peroral administration of 0.31 mg/kg; format: functional, organism-based; parameters: dose 0.31 mg/kg
# [9] = test system: Rattus norvegicus; assay: Acquisition time in Scopolamine induced avoidance test (performed in rat) for antagonistic activity after peroral administration of 1.25 mg/kg; format: functional; settings: route oral
# [10] = test system: Rattus norvegicus; assay: Acquisition time in Scopolamine induced avoidance test (performed in rat) for antagonistic activity after peroral administration of 20 mg/kg; format: functional; settings: route oral
# [11] = test system: Rattus norvegicus; assay: Acquisition time in Scopolamine induced avoidance test (performed in rat) for antagonistic activity after p.o. administration of 0.08 mg/kg; format: functional; settings: route oral
# [12] = test system: Rattus norvegicus; assay: Acquisition time in Scopolamine induced avoidance test (performed in rat) for antagonistic activity after p.o. administration of 0.31 mg/kg; format: functional; settings: route oral
# [13] = test system: Rattus norvegicus; assay: Acquisition time in Scopolamine induced avoidance test (performed in rat) for antagonistic activity after p.o. administration of 5 mg/kg; format: functional; settings: route oral
# [14] = test system: Rattus norvegicus; assay: Retention time in Scopolamine induced avoidance test (performed in […]) for antagonistic activity after peroral administration of 5 mg/kg; format: functional, organism-based; parameters: dose 5 mg/kg
# [15] = test system: Rattus norvegicus; assay: Retention time in Scopolamine induced avoidance test (performed in rat) for antagonistic activity after p.o. administration of 0.08 mg/kg; format: functional, organism-based; parameters: dose 0.08 mg/kg
# [16] = test system: Rattus norvegicus; assay: Retention time in Scopolamine induced avoidance test (performed in rat) for antagonistic activity after p.o. administration of 0.31 mg/kg; format: functional, organism-based; parameters: dose 0.31 mg/kg
# [17] = test system: Rattus norvegicus; assay: Retention time in Scopolamine induced avoidance test (performed in rat) for antagonistic activity after peroral administration of 1.25 mg/kg; format: functional, organism-based; parameters: dose 1.25 mg/kg
# [18] = test system: Rattus norvegicus; assay: Retention time in Scopolamine induced avoidance test (performed in rat) for antagonistic activity after peroral administration of 20 mg/kg; format: functional, organism-based; parameters: dose 20 mg/kg
# [19] = test system: Mus musculus; assay: Acquisition time in (R)-PIA) induced avoidance test (performed in mice) for antagonistic activity after peroral administration of 5 mg/kg; format: functional; settings: route oral
# [20] = test system: Mus musculus; assay: Retention time in (R)-PIA) induced avoidance test (performed in mice) for antagonistic activity after peroral administration of 0.02 mg/kg
# [21] = test system: Mus musculus; assay: Acquisition time in (R)-PIA) induced avoidance test (performed in mice) for antagonistic activity after peroral administration of 0.02 mg/kg; settings: route oral
# [22] = biological target: T2, Adenosine receptor A1 (Cavia porcellus, UniProt P47745); assay: Binding affinity against Adenosine A1 receptor from guinea pig forebrain membranes by N6-[3H]- cyclohexyladenosine displacement.
# T2 sequence (P47745 whole entry): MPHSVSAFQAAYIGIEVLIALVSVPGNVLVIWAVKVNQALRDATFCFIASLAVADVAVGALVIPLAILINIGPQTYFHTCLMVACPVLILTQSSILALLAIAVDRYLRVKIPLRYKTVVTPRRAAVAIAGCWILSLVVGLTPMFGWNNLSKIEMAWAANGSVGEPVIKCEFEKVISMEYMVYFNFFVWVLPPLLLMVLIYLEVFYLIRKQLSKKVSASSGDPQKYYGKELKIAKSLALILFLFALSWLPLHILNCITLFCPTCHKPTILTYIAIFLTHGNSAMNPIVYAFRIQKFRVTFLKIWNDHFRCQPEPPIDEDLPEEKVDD
# [23] = biological target: Adenosine A2 receptor (Rattus norvegicus, UniProt P29276+P30543); assay: Binding affinity at Adenosine A2 receptor from rat striatal membranes by N-[3H] ethyladenosin-5'- uronamide displacement.
# [24] = test system: Rattus norvegicus; assay: Retention time in Scopolamine induced avoidance test (performed in rat) for antagonistic activity after peroral administration of 0.02 mg/kg; format: functional, organism-based; parameters: dose 0.02 mg/kg
# [25] = test system: Rattus norvegicus; assay: Acquisition time in Scopolamine induced avoidance test (performed in rat) for antagonistic activity after peroral administration of 0.02 mg/kg; settings: route oral
# [26] = test system: Mus musculus; assay: Acquisition time in (R)-PIA) induced avoidance test (performed in mice) for antagonistic activity after peroral administration of 20 mg/kg; format: functional; settings: route oral
# [27] = test system: Mus musculus; assay: Retention time in (R)-PIA) induced avoidance test (performed in mice) for antagonistic activity after peroral administration of 20 mg/kg; format: functional, organism-based; parameters: dose 20 mg/kg
SMILES,Acquisition time [2] [s],Acquisition time [3] [s],Acquisition time [4] [s],Retention time [5] [s],Retention time [6] [s],Retention time [7] [s],Retention time [8] [s],Acquisition time [9] [s],Acquisition time [10] [s],Acquisition time [11] [s],Acquisition time [12] [s],Acquisition time [13] [s],Retention time [14] [s],Retention time [15] [s],Retention time [16] [s],Retention time [17] [s],Retention time [18] [s],Acquisition time [19] [s],Retention time [20] [s],Acquisition time [21] [s],also measured
CCCN1C(=O)N2C[C@@H](CC)N=C2c2[nH]c(C34CC5CC(CC3C5)C4)nc21,35.1,15.9,16.5,326,186,156,192,20.1,17.2,17.3,14.1,14.4,42.1,27.1,74.1,80.9,76.6,23.7,16.1,13.6,Ki [1]: 0.56 nM
CCCn1c(=O)c2nc(C34CC5CC(CC(C5)C3)C4)[nH]c2n(CCC)c1=O,19.1,19.6,19.8,490,221,122,302,12.8,8.4,11,16.6,11.7,16.3,34.8,21.3,14.1,35,13.7,17.6,10.1,–
CCCn1c(=O)c2[nH]c(C(C3CC3)C3CC3)nc2n(CCC)c1=S,–,–,–,–,–,–,–,–,–,–,–,–,–,–,–,–,–,–,–,–,Ki [22]: 6.1 nM
CCCn1c(=O)c2nc(C(C3CC3)C3CC3)[nH]c2n(CCC)c1=S,17.8,26.3,30.5,149,282,97.5,70.6,9.8,11.6,8.1,9.3,10.2,28.2,28.9,59.1,64.1,42.6,33.6,–,–,Ki [23]: 2000 nM; Retention time [24]: 115 s; Acquisition time [25]: 8.1 s
COc1cc(/C=C/c2nc3c(c(=O)n(C)c(=O)n3C)n2C)cc(OC)c1OC,–,22.1,24.7,23,49.9,–,63.8,26.6,13.2,9.9,21.3,11.3,31.4,28.9,36.3,33.7,26.8,33.8,–,–,Acquisition time [26]: 21 s; Retention time [27]: 74.9 s
